Measurements reported in PubChem BioAssay AID250 (DTP/NCI, 2004).
Where “and” joins values, the source holds several entries; their conditions need not be identical. Equal values may be shown once. Inconclusive results and toxic doses are left out.

Test system: BDF1 mice, L1210 leukemia sc, survival T/C
Experiment: NCI In Vivo Anticancer Drug Screen. Data for tumor model L1210 Leukemia (subcutaneous) in B6D2F1 (BDF1) mice
Conditions: endpoint: median survival time, higher = longer survival
In short: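 Expressed as T/C: measurement in compound-treated, tumor-bearing mice relative to vehicle-treated control mice, based on survival or tumor size.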

[1] = dose: 3.0 mg/kg/injection, schedule: Q01DX Z (sc), vehicle: methylcellulose (MC)
[2] = dose: 5.0 mg/kg/injection, schedule: Q01DX Z (sc), vehicle: methylcellulose (MC)

Nc1nc(=S)c2[nH]cnc2[nH]1
T/C (dose: 0.37 mg/kg/injection, schedule: Q01DX009 (sc), vehicle: other): 100 % of control and 102 % of control | T/C (dose: 0.47 mg/kg/injection, schedule: Q01DX Z (sc), vehicle: methylcellulose (MC)): 104 % of control and 110 % of control | T/C (dose: 0.65 mg/kg/injection, schedule: Q01DX Z (sc), vehicle: methylcellulose (MC)): 100 % of control | T/C (dose: 0.75 mg/kg/injection, schedule: Q01DX009 (sc), vehicle: other): 110 % of control and 111 % of control | T/C (dose: 0.78 mg/kg/injection, schedule: Q01DX Z (sc), vehicle: methylcellulose (MC)): 100 % of control and 120 % of control | T/C (dose: 1.0 mg/kg/injection, schedule: Q01DX Z (sc), vehicle: other): 100 % of control | T/C (dose: 1.08 mg/kg/injection, schedule: Q01DX Z (sc), vehicle: methylcellulose (MC)): 109 % of control | T/C (dose: 1.3 mg/kg/injection, schedule: Q01DX Z (sc), vehicle: methylcellulose (MC)): 118 % of control | T/C (dose: 1.5 mg/kg/injection, schedule: Q01DX009 (sc), vehicle: other): 150 % of control | T/C (dose: 1.5 mg/kg/injection, schedule: Q## X009 (sc), vehicle: other): 150 % of control | T/C (dose: 1.8 mg/kg/injection, schedule: Q01DX Z (oral), vehicle: methylcellulose (MC)): 109 % of control | T/C (dose: 2.0 mg/kg/injection, schedule: Q02DX Z (sc), vehicle: other): 118 % of control | T/C (dose: 2.16 mg/kg/injection, schedule: Q01DX Z (oral), vehicle: methylcellulose (MC)): 109 % of control | T/C (dose: 2.5 mg/kg/injection, schedule: Q02DX009 (sc), vehicle: other): 152 % of control | T/C (dose: 2.5 mg/kg/injection, schedule: Q02DX Z (sc), vehicle: other): 155 % of control | T/C (dose: 3.0 mg/kg/injection, schedule: Q01DX009 (sc), vehicle: other): 150 % of control and 152 % of control and 156 % of control | T/C (dose: 3.0 mg/kg/injection, schedule: Q01DX Z (oral), vehicle: methylcellulose (MC)): 118 % of control | T/C [1]: 154 % of control | T/C (dose: 3.0 mg/kg/injection, schedule: Q## X009 (sc), vehicle: other): 152 % of control | T/C (dose: 3.6 mg/kg/injection, schedule: Q01DX Z (oral), vehicle: methylcellulose (MC)): 109 % of control | T/C (dose: 3.6 mg/kg/injection, schedule: Q01DX Z (sc), vehicle: methylcellulose (MC)): 150 % of control | T/C (dose: 4.0 mg/kg/injection, schedule: Q02DX Z (sc), vehicle: other): 159 % of control | T/C [2]: 154 % of control | T/C (dose: 5.0 mg/kg/injection, schedule: Q02DX009 (sc), vehicle: other): 165 % of control | T/C (dose: 5.0 mg/kg/injection, schedule: Q02DX Z (sc), vehicle: other): 172 % of control | T/C (dose: 6.0 mg/kg/injection, schedule: Q01DX009 (sc), vehicle: other): 155 % of control and 162 % of control | T/C (dose: 6.0 mg/kg/injection, schedule: Q01DX Z (oral), vehicle: methylcellulose (MC)): 113 % of control | T/C (dose: 6.0 mg/kg/injection, schedule: Q01DX Z (sc), vehicle: methylcellulose (MC)): 150 % of control | T/C (dose: 8.0 mg/kg/injection, schedule: Q01DX Z (sc), vehicle: other): 154 % of control | T/C (dose: 8.0 mg/kg/injection, schedule: Q02DX Z (sc), vehicle: other): 154 % of control | T/C (dose: 8.4 mg/kg/injection, schedule: Q01DX Z (oral), vehicle: methylcellulose (MC)): 163 % of control | T/C (dose: 10.0 mg/kg/injection, schedule: Q01DX Z (oral), vehicle: methylcellulose (MC)): 118 % of control | T/C (dose: 10.0 mg/kg/injection, schedule: Q01DX Z (sc), vehicle: methylcellulose (MC)): 150 % of control | T/C (dose: 10.0 mg/kg/injection, schedule: Q02DX009 (sc), vehicle: other): 160 % of control | T/C (dose: 10.0 mg/kg/injection, schedule: Q02DX Z (sc), vehicle: other): 166 % of control | T/C (dose: 16.0 mg/kg/injection, schedule: Q02DX Z (sc), vehicle: other): 150 % of control | T/C (dose: 17.0 mg/kg/injection, schedule: Q01DX Z (oral), vehicle: methylcellulose (MC)): 118 % of control | T/C (dose: 20.0 mg/kg/injection, schedule: Q02DX Z (sc), vehicle: other): 150 % of control | T/C (dose: 28.0 mg/kg/injection, schedule: Q01DX Z (oral), vehicle: methylcellulose (MC)): 104 % of control | T/C (dose: 32.0 mg/kg/injection, schedule: Q02DX Z (sc), vehicle: other): 154 % of control | T/C (dose: 39.0 mg/kg/injection, schedule: Q01DX Z (oral), vehicle: methylcellulose (MC)): 154 % of control | T/C (dose: 40.0 mg/kg/injection, schedule: Q02DX Z (sc), vehicle: other): 155 % of control | T/C (dose: 47.0 mg/kg/injection, schedule: Q01DX Z (oral), vehicle: methylcellulose (MC)): 109 % of control

O=c1[nH]c(=S)c2[nH]c(=O)[nH]c2[nH]1
T/C [1]: 100 % of control | T/C [2]: 100 % of control

CCC(=O)OCC1OC(n2cnc3c(=S)nc(N)[nH]c32)C(OC(=O)CC)C1OC(=O)CC (configuration not stated)
T/C (dose: 5.0 mg/kg/injection, schedule: Q01DX Z (sc), vehicle: carboxymethylcellulose (CMC)): 100 % of control | T/C (dose: 14.0 mg/kg/injection, schedule: Q01DX Z (sc), vehicle: carboxymethylcellulose (CMC)): 109 % of control | T/C (dose: 23.0 mg/kg/injection, schedule: Q01DX Z (sc), vehicle: carboxymethylcellulose (CMC)): 100 % of control

N[C@H](C(=O)O)[C@H]1ON=C(Cl)[C@@H]1O
T/C (dose: 8.0 mg/kg/injection, schedule: Q01DX009 (sc), vehicle: saline): 111 % of control | T/C (dose: 32.0 mg/kg/injection, schedule: Q01DX009 (sc), vehicle: saline): 150 % of control and 156 % of control | T/C (dose: 64.0 mg/kg/injection, schedule: Q01DX009 (sc), vehicle: saline): 153 % of control and 156 % of control | T/C (dose: 128.0 mg/kg/injection, schedule: Q01DX009 (sc), vehicle: saline): 156 % of control and 160 % of control | T/C (dose: 256.0 mg/kg/injection, schedule: Q01DX009 (sc), vehicle: saline): 157 % of control and 176 % of control | T/C (dose: 512.0 mg/kg/injection, schedule: Q01DX009 (sc), vehicle: saline): 176 % of control | T/C (dose: 1024.0 mg/kg/injection, schedule: Q01DX009 (sc), vehicle: saline): 177 % of control

CCCCCCC(=O)O[C@H]1CC[C@H]2[C@@H]3CCC4=CC(=O)CC[C@]4(C)[C@H]3CC[C@]12C
T/C (dose: 5.0 mg/kg/injection, schedule: Q01DX009 (ip), vehicle: other): 101 % of control | T/C (dose: 5.0 mg/kg/injection, schedule: Q01DX009 (sc), vehicle: other): 102 % of control and 105 % of control | T/C (dose: 10.0 mg/kg/injection, schedule: Q01DX009 (ip), vehicle: other): 102 % of control | T/C (dose: 10.0 mg/kg/injection, schedule: Q01DX009 (sc), vehicle: other): 100 % of control and 104 % of control | T/C (dose: 20.0 mg/kg/injection, schedule: Q01DX009 (ip), vehicle: other): 98 % of control | T/C (dose: 20.0 mg/kg/injection, schedule: Q01DX009 (sc), vehicle: other): 104 % of control and 105 % of control | T/C (dose: 40.0 mg/kg/injection, schedule: Q01DX009 (ip), vehicle: other): 104 % of control | T/C (dose: 40.0 mg/kg/injection, schedule: Q01DX009 (sc), vehicle: other): 101 % of control and 103 % of control | T/C (dose: 80.0 mg/kg/injection, schedule: Q01DX009 (ip), vehicle: other): 97 % of control and 98 % of control | T/C (dose: 160.0 mg/kg/injection, schedule: Q01DX009 (ip), vehicle: other): 94 % of control and 98 % of control | T/C (dose: 320.0 mg/kg/injection, schedule: Q01DX009 (sc), vehicle: other): 88 % of control and 104 % of control | T/C (dose: 640.0 mg/kg/injection, schedule: Q01DX009 (sc), vehicle: other): 95 % of control and 100 % of control
